Read-outs that look alike come from different tables or passages of the source.
What was measured:
[1] = tested on: T-47D; test: MTT test, cytotoxic activity on non-clonogenic cell lines; type: cell-based; details: Homo sapiens, T47D, 10^−5 M, mean value
Procedure: (§1) The principle of the MTT test is based on the mitochondrial reduction, by the metabolically active live cells, of the yellow-colored product MTT (3-(4,5-dimethylthiazol-2-yl)-2,5-diphenyltetrazolium bromide) to a blue-colored product, formazan. The amount of formazan thus obtained is directly proportional to the amount of live cells present in the culture well(s). This amount of formazan is measured by spectrophotometry.
(§2) The cell lines are maintained as a monolayer culture at 37° C. in stoppered culture dishes containing MEM 25 MM HEPES (Minimum Essential Medium) base medium. This medium is suited to the growth of a range of various mammalian diploid or primary cells. This medium is then supplemented with:
(§3) The 12 human cancer cell lines which were used were obtained from the American Type Culture Collection (ATCC, Rockville, Md., USA). These 12 cell lines are:
(§4) Experimentally, 100 μl of a cell suspension containing 20 000 to 50 000 (depending on the cell type used) cells/ml of culture medium are inoculated -in 96-well flat-bottomed multi-well plates and are left to stand in an incubator at 37° C., 5% CO2 and 70% humidity. After an incubation time of 24 hours, the culture medium is replaced with 100 μl of fresh medium containing either the various test compounds—at concentrations varying from 10^−5 to 10^−10 M—or the solvent having served for dissolving the products to be tested (control condition). […] The microplates are thus incubated for 3 hours at 37° C., then centrifuged for 10 minutes at 400 g. The yellowish solution of MTT is removed and the blue formazan crystals formed in the cell region are dissolved in 100 μl or DMSO. The microplates are then shaken for 5 minutes. […] Software incorporated in the spectrophotometer calculates the average optical density values and the standard deviation (SD) and standard error of mean (SEM) values.

[2] = tested on: MCF7; test: as above; type: cell-based; details: Homo sapiens, 10^−5 M, mean value
Procedure: as §1, §2, §3, §4

[3] = tested on: A549; test: as above; type: cell-based; details: Homo sapiens, 10^−5 M, mean value
Procedure: as §1, §2, §3, §4

[4] = tested on: U-373MG; test: as above; type: cell-based; details: Homo sapiens, U373 MG, 10^−5 M, mean value
Procedure: as §1, §2, §3, §4

[5] = tested on: A-427; test: as above; type: cell-based; details: Homo sapiens, 10^−5 M, mean value
Procedure: as §1, §2, §3, §4

[6] = tested on: PC-3; test: as above; type: cell-based; details: Homo sapiens, 10^−5 M, mean value
Procedure: as §1, §2, §3, §4

[7] = tested on: LoVo; test: as above; type: cell-based; details: Homo sapiens, 10^−5 M, mean value
Procedure: as §1, §2, §3, §4

[8] = tested on: U-87MG; test: as above; type: cell-based; details: Homo sapiens, 10^−5 M, mean value
Procedure: as §1, §2, §3, §4

[9] = tested on: HCT-15; test: as above; type: cell-based; details: Homo sapiens, mean value
Procedure: as §1, §2, §3, §4

[10] = tested on: J82; test: as above; type: cell-based; details: Homo sapiens, 10^−5 M, mean value
Procedure: as §1, §2, §3
(§5) J82 (code ATCC: HTB-1) and T24 (code ATCC: HTB-4) which are two bladder cancers,
as §4

[11] = tested on: T24; test: as above; type: cell-based; details: Homo sapiens, T-24, 10^−5 M, mean value
Procedure: as §1, §2, §3, §5, §4

[12] = Determination of the maximum tolerated dose (MTD); details: B6D2F1/Jico, mouse, in vivo, ip; single intraperitoneal administration, doses 2.5 to 160 mg/kg, survival over 14 days
Procedure: The evaluation of the maximum tolerated dose was performed on 4- to 6-week-old B6D2F1/Jico mice. The compounds were administered intraperitoneally at increasing doses ranging from 2.5 to 160 mg/kg. The value of the MTD (expressed in mg/kg) is determined from the observation of the survival rate of the animals over a 14-day period after a single administration of the product under consideration. The change in weight of the animals is also monitored during this period. When the MTD value is greater than 160 mg/kg, the MTD value is considered as being 160 mg/kg by default.

[13] = tested on: SW1088; test: MTT test, cytotoxic activity on non-clonogenic cell lines; type: cell-based; details: Homo sapiens, 10^−5 M, mean value
Procedure: as §1, §2, §3
SW1088 (code ATCC: HTB-12) which is an astro-cytoma,
as §4

[14] = T-47D, 72 hours incubation, MTT, read-out: mean optical density, expressed as percentage relative to the mean optical density under the control condition (100%)
[15] = 72 hours incubation, MTT, read-out: mean optical density, expressed as percentage relative to the mean optical density under the control condition (100%)
[16] = U-373MG, 72 hours incubation, MTT, read-out: mean optical density, expressed as percentage relative to the mean optical density under the control condition (100%)
[17] = U-87MG, 72 hours incubation, MTT, read-out: mean optical density, expressed as percentage relative to the mean optical density under the control condition (100%)
[18] = HCT-16, 10^−5 M, 72 hours incubation, MTT, read-out: mean optical density, expressed as percentage relative to the mean optical density under the control condition (100%)
[19] = T24, 72 hours incubation, MTT, read-out: mean optical density, expressed as percentage relative to the mean optical density under the control condition (100%)
[20] = 72 hours of incubation, control condition = 100%, read-out: mean optical density as percentage of control, T-47D
[21] = 72 hours of incubation, control condition = 100%, read-out: mean optical density as percentage of control, MCF7
[22] = 72 hours of incubation, control condition = 100%, read-out: mean optical density as percentage of control, A549
[23] = 72 hours of incubation, control condition = 100%, read-out: mean optical density as percentage of control, U-373MG
[24] = 72 hours of incubation, control condition = 100%, read-out: mean optical density as percentage of control, A-427
[25] = 72 hours of incubation, control condition = 100%, read-out: mean optical density as percentage of control, PC-3
[26] = 72 hours of incubation, control condition = 100%, read-out: mean optical density as percentage of control, LoVo
[27] = U-87 MG, 72 hours of incubation, control condition = 100%, read-out: mean optical density as percentage of control, U-87MG
[28] = 10^−5 M, 72 hours of incubation, control condition = 100%, read-out: mean optical density as percentage of control, HCT-16
[29] = 72 hours of incubation, control condition = 100%, read-out: mean optical density as percentage of control, J82
[30] = 72 hours of incubation, control condition = 100%, read-out: mean optical density as percentage of control, T24
[31] = 72 hours of incubation, control condition = 100%, read-out: mean optical density as percentage of control, SW1088

SMILES | viability at 10 µM [1, 14] | viability at 10 µM [2, 15] | viability at 10 µM [3, 15] | viability at 10 µM [4, 16] | viability at 10 µM [5, 15] | viability at 10 µM [6, 15] | viability at 10 µM [7, 15] | viability at 10 µM [8, 17] | viability at 10 µM [9, 18] | viability at 10 µM [10, 15] | viability at 10 µM [11, 19] | MTD at 14 day [12] | viability at 10 µM [13, 15] | viability at 10 µM [1, 20] | viability at 10 µM [2, 21] | viability at 10 µM [3, 22] | viability at 10 µM [4, 23] | viability at 10 µM [5, 24] | viability at 10 µM [6, 25] | viability at 10 µM [7, 26] | further results
CCN(CC)C(=O)Cn1cc(-c2ccc(OC)cc2)c(=O)c2ccc(OC)cc21 [CRL8466, N,N-Diethyl-2-[7-methoxy-3-(4-methoxyphenyl)-4-oxo-1,4-dihydro-1-quinolinyl]acetamide] | 95.2% | 108% | 101% | 59.4% | 97.5% | 102% | 98.9% | 97.2% | 96.1% | 93.1% | 69.5% | > 160 mg/kg | 102% | – | – | – | – | – | – | – | –
COc1ccc(-c2c[nH]c3c(OC)cccc3c2=O)cc1 [CRL8329, 8-Methoxy-3-(4-methoxyphenyl)-1,4-dihydro-4-quinolinone] | – | – | – | – | – | – | – | – | – | – | – | > 160 mg/kg | – | 78.5% | 96.3% | 96.5% | 94% | 102% | 93.1% | 94.6% | viability at 10 µM [8, 27]: 1.38%; viability at 10 µM [9, 28]: 98%; viability at 10 µM [10, 29]: 96.8%; viability at 10 µM [11, 30]: 95.4%; viability at 10 µM [13, 31]: 96.2%
CCOC(=O)Cn1cc(-c2ccc(OC)cc2)c(=O)c2ccc(OC)cc21 [CRL8465, Ethyl 2-[7-methoxy-3-(4-methoxyphenyl)-4-oxo-1,4-dihydro-1-quinolinyl]acetate] | 94.4% | 94.3% | 80.1% | 100% | 85.4% | 96.9% | 110% | 105% | 165% | 93.6% | 91.2% | > 160 mg/kg | 89.8% | – | – | – | – | – | – | – | –
COc1ccc(OC)c2c1c(=O)c(-c1ccccc1)cn2C [CRL8383, 5,8-Dimethoxy-1-methyl-3-phenyl-1,4-dihydro-4-quinolinone] | – | – | – | – | – | – | – | – | – | – | – | > 160 mg/kg | – | 75.3% | 85% | 84.1% | 83.5% | 92.1% | 88.3% | 89.1% | viability at 10 µM [8, 27]: 69.5%; viability at 10 µM [9, 28]: 100%; viability at 10 µM [10, 29]: 94.6%; viability at 10 µM [11, 30]: 180%; viability at 10 µM [13, 31]: 75.9%
O=c1c(-c2ccccc2)c[nH]c2ccccc12 [CRL8326, 3-Phenyl-1,4-dihydro-4-quinolinone] | – | – | – | – | – | – | – | – | – | – | – | > 160 mg/kg | – | 50.2% | 94.1% | 104% | 96.9% | 101% | 95.4% | 67.7% | viability at 10 µM [8, 27]: 102%; viability at 10 µM [9, 28]: 110%; viability at 10 µM [10, 29]: 86.9%; viability at 10 µM [11, 30]: 92.6%; viability at 10 µM [13, 31]: 108%
COc1ccc(-c2cn(C)c3cc(OC)ccc3c2=O)cc1 [CRL8464, 7-Methoxy-3-(4-methoxyphenyl)-1-methyl-1,4-dihydro-4-quinolinone] | 110% | 99.8% | 91.3% | 118% | 102% | 97.1% | 101% | 105% | 111% | 95.4% | 105% | > 160 mg/kg | 95.6% | – | – | – | – | – | – | – | –
COc1ccc(-c2cn(CCC#N)c3cc(OC)ccc3c2=O)cc1 [CRL8467, 3-[7-Methoxy-3-(4-methoxyphenyl)-4-oxo-1,4-dihydro-1-quinolinyl]propanenitrile] | 100% | 98.3% | 90.8% | 108% | 90% | 98.4% | 95.8% | 95.3% | 108% | 96.3% | 94.6% | > 160 mg/kg | 101% | – | – | – | – | – | – | – | –
COc1ccc(-c2cn(C)c3cc(OC)cc(-c4ccccc4)c3c2=O)cc1 [CRL8394, 7-Methoxy-3-(4-methoxyphenyl)-1-methyl-5-phenyl-1,4-dihydro-4-quinolinone] | – | – | – | – | – | – | – | – | – | – | – | > 160 mg/kg | – | 94.3% | 78% | 52.9% | 73.5% | 38.9% | 83.2% | 45.1% | viability at 10 µM [8, 27]: 42.2%; viability at 10 µM [9, 28]: 37.7%; viability at 10 µM [10, 29]: 93.5%; viability at 10 µM [11, 30]: 92.9%; viability at 10 µM [13, 31]: 68.5%
COc1ccc(-c2cn(C)c3cc(OC)cc(NCCN(C)C)c3c2=O)cc1 [CRL8462, 5-{[(Dimethylamino)ethyl]amino}-7-methoxy-3-(4-methoxyphenyl)-1-methyl-1,4-dihydro-4-quinolinone] | 92.2% | 89.4% | 86.8% | 111% | 77.1% | 84% | 84.6% | 195% | 77.4% | 105% | 111% | > 160 mg/kg | 105% | – | – | – | – | – | – | – | –
COc1ccc(-c2cn(C)c3cc(OC)cc(N)c3c2=O)cc1 [CRL8461, 5-Amino-7-methoxy-3-(4-methoxyphenyl)-1-methyl-1,4-dihydro-4-quinolinone] | 51.9% | 68.2% | 99.7% | 91.6% | 90.5% | 91.9% | 92.7% | 77.2% | 88.5% | 94.9% | 107% | > 160 mg/kg | 91.9% | – | – | – | – | – | – | – | –
